Measured values from US20140120083A1, “TREATMENT OF CANCERS USING PI3 KINASE ISOFORM MODULATORS” (INFINITY PHARMACEUTICALS, INC., priority 2012, published 2014).
“And” between values parts separate entries of the source, which are not always exact repeats. Equal entries are not always repeated.

Key:
Assay type in all cases: biochemical
PI3K α = target: T1, PI3K α (Homo sapiens, UniProt P42336); assay: In vitro IC50, PI3K α
T1 construct: purchased Upstate
From the text: (§1) An exemplary system is PI 3-Kinase (human) HTRF™ Assay from Upstate.

PI3K β = PI3K β (Homo sapiens, UniProt P42338); assay: In vitro IC50, PI3K β
PI3K β, sequence (P42338 whole entry): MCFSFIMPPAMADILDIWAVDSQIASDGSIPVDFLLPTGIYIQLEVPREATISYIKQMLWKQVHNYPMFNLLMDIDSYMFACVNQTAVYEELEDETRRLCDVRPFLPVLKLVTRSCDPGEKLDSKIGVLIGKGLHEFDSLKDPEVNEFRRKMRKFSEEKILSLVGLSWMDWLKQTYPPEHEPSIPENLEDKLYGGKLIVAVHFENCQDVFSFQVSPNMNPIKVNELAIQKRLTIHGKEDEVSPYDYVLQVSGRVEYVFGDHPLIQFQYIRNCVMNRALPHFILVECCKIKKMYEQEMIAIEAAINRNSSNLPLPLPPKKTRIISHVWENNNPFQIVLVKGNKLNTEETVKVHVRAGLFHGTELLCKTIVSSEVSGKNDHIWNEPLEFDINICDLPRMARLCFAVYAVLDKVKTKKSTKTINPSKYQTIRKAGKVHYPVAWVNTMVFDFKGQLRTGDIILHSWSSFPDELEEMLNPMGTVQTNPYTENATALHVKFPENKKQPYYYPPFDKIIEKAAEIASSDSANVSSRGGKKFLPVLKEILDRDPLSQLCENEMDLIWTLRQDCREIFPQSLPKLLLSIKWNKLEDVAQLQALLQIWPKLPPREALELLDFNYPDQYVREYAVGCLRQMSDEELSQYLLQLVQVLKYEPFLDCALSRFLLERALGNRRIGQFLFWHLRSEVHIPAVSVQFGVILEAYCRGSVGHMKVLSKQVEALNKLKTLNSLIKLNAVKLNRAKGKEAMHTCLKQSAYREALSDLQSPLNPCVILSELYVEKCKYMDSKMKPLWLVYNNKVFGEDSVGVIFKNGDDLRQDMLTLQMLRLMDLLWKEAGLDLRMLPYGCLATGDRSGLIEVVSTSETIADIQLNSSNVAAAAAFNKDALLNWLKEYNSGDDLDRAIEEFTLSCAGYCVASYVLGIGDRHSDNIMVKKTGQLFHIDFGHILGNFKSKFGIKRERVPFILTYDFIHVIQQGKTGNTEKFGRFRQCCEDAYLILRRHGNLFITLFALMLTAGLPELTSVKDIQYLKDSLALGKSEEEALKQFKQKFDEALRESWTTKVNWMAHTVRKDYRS
From the text: as §1

PI3K δ = PI3K δ (Homo sapiens, UniProt O00329); assay: In vitro IC50, PI3K δ; design: purchased Upstate
PI3K δ, sequence (O00329 whole entry): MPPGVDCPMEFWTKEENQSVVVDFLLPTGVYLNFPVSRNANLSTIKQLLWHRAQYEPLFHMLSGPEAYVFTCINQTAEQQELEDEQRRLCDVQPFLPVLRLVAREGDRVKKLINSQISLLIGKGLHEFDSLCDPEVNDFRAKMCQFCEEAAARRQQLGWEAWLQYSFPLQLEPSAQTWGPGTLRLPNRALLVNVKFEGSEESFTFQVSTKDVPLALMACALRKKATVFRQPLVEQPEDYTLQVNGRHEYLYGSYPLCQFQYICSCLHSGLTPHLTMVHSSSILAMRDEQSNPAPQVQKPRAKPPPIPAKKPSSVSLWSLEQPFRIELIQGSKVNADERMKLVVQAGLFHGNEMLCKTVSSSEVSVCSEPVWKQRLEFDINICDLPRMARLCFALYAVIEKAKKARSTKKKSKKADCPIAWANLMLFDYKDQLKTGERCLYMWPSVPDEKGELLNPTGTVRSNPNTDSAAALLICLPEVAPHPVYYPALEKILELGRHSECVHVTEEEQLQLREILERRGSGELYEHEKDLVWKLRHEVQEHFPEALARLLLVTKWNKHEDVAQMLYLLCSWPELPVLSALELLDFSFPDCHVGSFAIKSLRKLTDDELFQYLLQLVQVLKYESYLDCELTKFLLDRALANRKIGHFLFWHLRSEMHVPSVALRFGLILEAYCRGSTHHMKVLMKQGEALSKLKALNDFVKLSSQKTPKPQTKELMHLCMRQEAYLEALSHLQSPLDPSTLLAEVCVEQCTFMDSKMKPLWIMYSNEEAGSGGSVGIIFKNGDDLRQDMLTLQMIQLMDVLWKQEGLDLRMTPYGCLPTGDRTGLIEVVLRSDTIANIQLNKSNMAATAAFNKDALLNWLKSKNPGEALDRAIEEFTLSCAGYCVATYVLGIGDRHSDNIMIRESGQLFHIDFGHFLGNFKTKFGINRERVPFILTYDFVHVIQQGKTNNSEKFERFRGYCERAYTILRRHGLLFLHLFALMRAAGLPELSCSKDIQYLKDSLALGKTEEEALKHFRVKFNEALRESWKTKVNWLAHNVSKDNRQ
PI3K δ, sequence (P27986 whole entry partner): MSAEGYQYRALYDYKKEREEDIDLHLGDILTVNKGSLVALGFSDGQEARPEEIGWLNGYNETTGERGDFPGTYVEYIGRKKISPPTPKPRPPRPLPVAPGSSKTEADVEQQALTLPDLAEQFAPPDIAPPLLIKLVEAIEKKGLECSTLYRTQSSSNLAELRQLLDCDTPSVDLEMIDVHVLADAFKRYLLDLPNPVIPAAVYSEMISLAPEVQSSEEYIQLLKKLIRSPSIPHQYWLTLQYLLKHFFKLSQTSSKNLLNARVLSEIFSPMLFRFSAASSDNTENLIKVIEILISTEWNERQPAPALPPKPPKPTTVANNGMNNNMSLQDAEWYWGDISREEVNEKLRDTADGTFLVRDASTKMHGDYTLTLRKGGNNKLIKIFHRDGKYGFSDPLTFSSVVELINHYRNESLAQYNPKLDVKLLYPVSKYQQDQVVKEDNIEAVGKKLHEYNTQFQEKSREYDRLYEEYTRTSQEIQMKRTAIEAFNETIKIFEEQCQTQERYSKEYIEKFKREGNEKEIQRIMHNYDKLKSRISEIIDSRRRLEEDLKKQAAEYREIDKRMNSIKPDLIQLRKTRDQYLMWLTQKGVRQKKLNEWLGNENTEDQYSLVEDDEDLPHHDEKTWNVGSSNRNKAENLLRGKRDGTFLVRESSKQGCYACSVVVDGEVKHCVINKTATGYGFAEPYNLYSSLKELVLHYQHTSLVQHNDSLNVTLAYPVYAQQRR
From the text: as §1

PI3K γ = target: T2, PI3K γ (Homo sapiens, UniProt P48736); assay: In vitro IC50, PI3K γ
T2 construct: purchased Sigma
T2 sequence (P48736 whole entry): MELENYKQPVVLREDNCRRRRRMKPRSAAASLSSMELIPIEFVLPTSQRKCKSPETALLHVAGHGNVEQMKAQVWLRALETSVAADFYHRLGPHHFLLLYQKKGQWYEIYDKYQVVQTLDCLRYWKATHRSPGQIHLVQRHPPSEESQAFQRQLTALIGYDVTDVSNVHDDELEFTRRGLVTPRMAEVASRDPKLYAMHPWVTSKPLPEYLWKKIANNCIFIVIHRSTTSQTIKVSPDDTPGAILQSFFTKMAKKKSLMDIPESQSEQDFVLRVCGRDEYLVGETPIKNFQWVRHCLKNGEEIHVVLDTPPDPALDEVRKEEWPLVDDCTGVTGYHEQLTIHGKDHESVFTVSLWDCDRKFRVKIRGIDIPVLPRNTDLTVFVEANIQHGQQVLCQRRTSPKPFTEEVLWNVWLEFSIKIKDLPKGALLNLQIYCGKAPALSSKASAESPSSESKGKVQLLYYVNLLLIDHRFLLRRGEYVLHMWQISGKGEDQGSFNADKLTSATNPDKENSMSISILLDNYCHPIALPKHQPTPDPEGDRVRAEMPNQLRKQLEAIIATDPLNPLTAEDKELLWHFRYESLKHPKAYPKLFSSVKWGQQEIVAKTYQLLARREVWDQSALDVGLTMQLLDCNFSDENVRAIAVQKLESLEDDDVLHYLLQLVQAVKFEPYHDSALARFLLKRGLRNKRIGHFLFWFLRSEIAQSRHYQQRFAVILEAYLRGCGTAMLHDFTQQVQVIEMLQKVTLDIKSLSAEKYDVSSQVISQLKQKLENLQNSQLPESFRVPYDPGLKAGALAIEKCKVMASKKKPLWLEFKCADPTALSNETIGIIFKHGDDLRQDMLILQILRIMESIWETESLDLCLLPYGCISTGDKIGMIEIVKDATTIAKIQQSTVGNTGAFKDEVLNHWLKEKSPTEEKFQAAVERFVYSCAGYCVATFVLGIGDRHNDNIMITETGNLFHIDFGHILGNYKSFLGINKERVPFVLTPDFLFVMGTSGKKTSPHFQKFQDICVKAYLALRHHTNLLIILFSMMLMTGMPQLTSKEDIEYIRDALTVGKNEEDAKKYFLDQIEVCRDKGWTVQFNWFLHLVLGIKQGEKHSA
From the text: as §1

T1 sequence (P42336 whole entry): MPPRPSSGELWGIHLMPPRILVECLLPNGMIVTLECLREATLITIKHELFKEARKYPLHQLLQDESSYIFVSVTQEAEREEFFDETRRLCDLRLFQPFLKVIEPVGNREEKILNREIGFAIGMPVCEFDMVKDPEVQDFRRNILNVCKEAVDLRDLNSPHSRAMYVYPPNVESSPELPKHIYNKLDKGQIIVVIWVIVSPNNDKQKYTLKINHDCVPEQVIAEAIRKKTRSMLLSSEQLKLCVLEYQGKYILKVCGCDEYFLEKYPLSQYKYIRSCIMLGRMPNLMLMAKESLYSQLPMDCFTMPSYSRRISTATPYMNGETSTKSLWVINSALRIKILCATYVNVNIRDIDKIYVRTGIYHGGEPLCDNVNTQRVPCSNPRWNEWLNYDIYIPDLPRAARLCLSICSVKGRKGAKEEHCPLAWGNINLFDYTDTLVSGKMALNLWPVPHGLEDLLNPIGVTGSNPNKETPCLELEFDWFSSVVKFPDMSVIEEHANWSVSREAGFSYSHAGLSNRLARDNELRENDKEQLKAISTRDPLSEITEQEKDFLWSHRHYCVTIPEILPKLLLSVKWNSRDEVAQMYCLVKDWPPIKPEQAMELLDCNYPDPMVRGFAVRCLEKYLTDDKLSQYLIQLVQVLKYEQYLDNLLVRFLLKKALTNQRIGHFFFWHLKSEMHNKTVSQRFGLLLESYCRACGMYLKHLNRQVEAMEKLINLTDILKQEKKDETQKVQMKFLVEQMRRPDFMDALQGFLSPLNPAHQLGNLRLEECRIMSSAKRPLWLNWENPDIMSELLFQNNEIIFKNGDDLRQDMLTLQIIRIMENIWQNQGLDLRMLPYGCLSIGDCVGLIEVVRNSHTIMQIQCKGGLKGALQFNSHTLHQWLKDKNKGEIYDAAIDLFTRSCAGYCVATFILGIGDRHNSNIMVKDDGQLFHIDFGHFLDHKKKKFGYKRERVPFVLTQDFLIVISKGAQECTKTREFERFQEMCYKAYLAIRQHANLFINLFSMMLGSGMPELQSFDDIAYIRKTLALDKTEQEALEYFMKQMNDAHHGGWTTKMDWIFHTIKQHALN
T1 sequence (P27986 whole entry partner): as the sequence (P27986 whole entry partner) above

| IC50 (PI3K α) [µM] | IC50 (PI3K β) [µM] | IC50 (PI3K δ) [µM] | IC50 (PI3K γ) | SMILES |
| --- | --- | --- | --- | --- |
|  | > 10 | < 0.1 | < 0.1 µM | Cc1cccc2cc(Cn3nc(CF)c4c(N)ncnc43)n(-c3ccccc3)c(=O)c12 [Compound 311] |
|  | > 10 | < 0.1 | < 0.1 µM | Cc1ccccc1-n1c(Cn2nc(CF)c3c(N)ncnc32)cc2cccc(C)c2c1=O [Compound 310] |
| < 0.1 | < 0.1 | < 0.1 |  | CC(=O)Nc1nc2ccc(-c3nn(Cc4cc5cccc(C)c5c(=O)n4C4CC4)c4ncnc(N)c34)cc2s1 [Compound 155] |
| > 10 | < 10 | < 1 |  | Cc1ccccc1-n1c(Cn2nc(C#C[C@H](C)O)c3c(N)ncnc32)cc2cccc(C)c2c1=O [Compound 85] |
|  | < 0.1 | < 0.1 | < 0.1 µM | Cc1cccc2cc([C@H](C)Nc3ncnc4[nH]cnc34)n(C3CC3)c(=O)c12 [Compound 200] |
| < 0.1 | < 0.1 | < 0.1 |  | CC(=O)Nc1nc2ccc(-c3nn(Cc4cc5cccc(Cl)c5c(=O)n4C(C)C)c4ncnc(N)c34)cc2s1 [Compound 157] |
| > 10 |  | < 1 | < 10 µM | Cc1cccc2cc([C@H](C)Nc3ncnc4[nH]ncc34)n(-c3ccccc3)c(=O)c12 [Compound 258] |
| > 10 |  | < 10 | < 10 µM | Cc1nc2c(N[C@@H](C)c3cc4cccc(C)c4c(=O)n3-c3ccccc3)ncnc2[nH]1 [Compound 242] |
| > 10 |  | < 0.1 | < 0.1 µM | Cc1cccnc1-n1c(Cn2nc(-c3cc(O)cc(F)c3)c3c(N)ncnc32)cc2cccc(C)c2c1=O [Compound 16] |
| > 10 |  | < 0.1 | < 0.1 µM | Cc1ccccc1-n1c(Cn2nc(Br)c3c(N)ncnc32)cc2cccc(C)c2c1=O [Compound 19] |
| > 10 |  | < 0.1 | < 0.1 µM | Cc1ccccc1-n1c(Cn2nc(-c3ccc(O)c(F)c3)c3c(N)ncnc32)cc2cccc(C)c2c1=O [Compound 30] |
| > 10 |  | < 0.1 | < 0.1 µM | Cc1ccccc1-n1c(Cn2nc(-c3cc(O)cc(F)c3)c3c(N)ncnc32)cc2ccccc2c1=O [Compound 33] |
| > 10 |  | < 1 | < 1 µM | Cc1cccnc1-n1c(Cn2nc(I)c3c(N)ncnc32)cc2cccc(C)c2c1=O [Compound 15] |
| > 10 |  | < 0.1 | < 1 µM | Cc1ccccc1-n1c(Cn2nc(Cl)c3c(N)ncnc32)cc2cccc(C)c2c1=O [Compound 20] |
| > 10 |  | < 0.1 | < 0.1 µM | Cc1ccccc1-n1c(Cn2nc(-c3cnc4[nH]ccc4c3)c3c(N)ncnc32)cc2cccc(C)c2c1=O [Compound 48] |
| < 10 |  | < 0.1 | < 0.1 µM | Cc1cccc2cc([C@H](C)Nc3nc(F)nc4[nH]cnc34)n(-c3ccccc3)c(=O)c12 [Compound 245] |
| > 10 |  | < 1 | > 10 µM | Cc1cccnc1-n1c(Cn2nc(Cl)c3c(N)ncnc32)cc2cccc(C)c2c1=O [Compound 18] |
|  | < 10 | < 0.1 | < 0.1 µM | CC(=O)Nc1nc2ccc(-c3nn(Cc4cc5cccc(C)c5c(=O)n4-c4cccc(F)c4)c4ncnc(N)c34)cc2s1 [Compound 178] |
|  | > 10 | < 0.1 | < 10 µM | Cc1ccccc1-n1c(Cn2nc(CC#N)c3c(N)ncnc32)cc2cccc(C)c2c1=O [Compound 312] |

The next lines start with the compound.

| SMILES | IC50 (PI3K α) [µM] | IC50 (PI3K β) [µM] | IC50 (PI3K δ) [µM] | IC50 (PI3K γ) |
| --- | --- | --- | --- | --- |
| CC(=O)Nc1nc2ccc(-c3nn(Cc4cc5cccc(C)c5c(=O)n4C)c4ncnc(N)c34)cc2s1 [Compound 153] | < 0.1 | < 1 | < 0.1 |  |
| Cc1ccncc1-n1c(Cn2nc(I)c3c(N)ncnc32)cc2cccc(C)c2c1=O [Compound 78] |  | > 10 | < 0.1 | < 1 µM |
| CC(=O)Nc1nc2ccc(-c3nn(Cc4cc5cccc(Cl)c5c(=O)n4C4CC4)c4ncnc(N)c34)cc2s1 [Compound 156] | < 0.1 | < 0.1 | < 0.1 |  |
| Cc1ccccc1-n1c(Cn2nc(-c3cc(O)cc(F)c3)c3c(N)ncnc32)cc2cccc(C)c2c1=O [Compound 7] | < 10 | < 1 |  |  |
| Cc1cccc2cc(Cn3nc(-c4cccc(Cl)c4)c4c(N)ncnc43)n(-c3ccccc3F)c(=O)c12 [Compound 38] |  | > 10 | < 10 | > 10 µM and < 10 µM |
| Cc1cccc2cc(Cn3nc(-c4cccc(O)c4)c4c(N)ncnc43)n(C3CCCCC3)c(=O)c12 [Compound 111] | > 10 | < 10 | < 0.1 |  |
| CC(=O)c1nn(Cc2cc3cccc(C)c3c(=O)n2-c2ccccc2)c2ncnc(N)c12 [Compound 319] | > 10 |  | < 1 | < 10 µM |
| Cc1cccc2cc(Cn3nc(-c4ccc5nc(N)cn5c4)c4c(N)ncnc43)n(-c3ccccc3)c(=O)c12 [Compound 239] | > 10 |  | < 1 | < 10 µM |
| Cc1cccc2cc(Cn3nc(I)c4c(N)ncnc43)n(-c3ccccc3Cl)c(=O)c12 [Compound 76] |  | > 10 | < 0.1 | < 1 µM |
| Cc1ccccc1-n1c(Cn2nc(-c3ccc(Cl)cc3)c3c(N)ncnc32)cc2cccc(C)c2c1=O [Compound 49] | > 10 |  | < 1 | < 1 µM |
| Cc1ccccc1-n1c(Cn2nc(-c3cccc(O)c3)c3c(N)ncnc32)cc2ccccc2c1=O [Compound 51] | > 10 |  | < 0.1 | < 1 µM |
| Cc1ccccc1-n1c(Cn2nc(CO)c3c(N)ncnc32)cc2cccc(C)c2c1=O [Compound 313] | > 10 |  | < 1 | < 10 µM |
| Cc1ccccc1-n1c(Cn2nc(I)c3c(N)ncnc32)cc2ccccc2c1=O [Compound 31] | > 10 |  | < 1 | < 0.1 µM |
| COCc1nn(Cc2cc3cccc(C)c3c(=O)n2-c2ccccc2C)c2ncnc(N)c12 [Compound 314] | > 10 |  | > 10 | > 10 µM |
| Cc1cccc2cc([C@H](C)Nc3c(C#N)cnc4ccccc34)n(-c3ccccc3)c(=O)c12 [Compound 246] | > 10 |  | < 10 | < 10 µM |
| CCc1ccccc1-n1c(Cn2nc(I)c3c(N)ncnc32)cc2cccc(C)c2c1=O [Compound 77] |  | < 10 | < 0.1 | < 0.1 µM |
| Cc1cccc2cc(Cn3nc(I)c4c(N)ncnc43)n(-c3ccccc3C(C)C)c(=O)c12 [Compound 75] |  | < 10 | < 0.1 | < 0.1 µM |
| CCC(Nc1ncnc2[nH]cnc12)c1cc2cccc(C)c2c(=O)n1-c1c(F)cccc1F (stereo not shown) [Compound 217] |  | > 10 | < 10 |  |
| Cc1cccc2cc(Cn3nc(C(C)(C)O)c4c(N)ncnc43)n(-c3ccccc3)c(=O)c12 [Compound 318] | > 10 |  | > 10 | > 10 µM |
| COc1ccc(-c2nn(Cc3cc4cccc(C)c4c(=O)n3-c3ccccc3F)c3ncnc(N)c23)cc1OC [Compound 47] | > 10 |  | < 1 | < 1 µM |
| CNC(=O)Nc1nc2ccc(-c3nn(Cc4cc5cccc(C)c5c(=O)n4-c4ccccc4C)c4ncnc(N)c34)cc2s1 [Compound 148] | < 0.1 |  | < 0.1 | < 0.1 µM |
